Experimental data reported in the NIST ThermoML archive (doi:10.1016/j.jct.2017.11.005).
Numbers after ± are expanded uncertainties.

Conditions: Gas, Capillary tube (Ostwald / Ubbelohde) method

O=C=O [carbon dioxide]
Conditions | viscosity [mPa·s]
308.2 K, 1200 kPa | 0.0153 ± 0.0005
308.2 K, 2070 kPa | 0.0154 ± 0.0005
308.2 K, 11330 kPa | 0.0638 ± 0.0012
308.2 K, 22090 kPa | 0.0882 ± 0.0017
308.2 K, 34970 kPa | 0.1068 ± 0.0021
308.2 K, 68930 kPa | 0.1441 ± 0.0028
308.2 K, 101200 kPa | 0.1733 ± 0.0036
308.2 K, 150520 kPa | 0.222 ± 0.0047
323.2 K, 1270 kPa | 0.0161 ± 0.0005
323.2 K, 2050 kPa | 0.0163 ± 0.0005
323.2 K, 5040 kPa | 0.0174 ± 0.0005
323.2 K, 11440 kPa | 0.0398 ± 0.001
323.2 K, 20670 kPa | 0.0711 ± 0.0015
323.2 K, 50820 kPa | 0.112 ± 0.0024
323.2 K, 105530 kPa | 0.1606 ± 0.0035
323.2 K, 150430 kPa | 0.1953 ± 0.0043
